Experimental findings from ChEMBL document CHEMBL1201862, “PubChem BioAssay data set” (2004) are described below.

SMILES strings stand for the structures.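 Growth conditions: 96-well plates. Treatment: test compound, 48 hours, 5 concentrations. Analysis: linear interpolation between bracketing concentrations; unreached endpoints set to highest concentration. The concentration for 50% growth inhibition is given as GI50.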 Calls of active or inactive are those of the source. Cut-off read from the data, not from the text of the source: active = GI50 up to about 1.1 µM and inactive = higher.

Among the test systems are MDA-N; Malme-3M; OVCAR-4; HL-60; SK-MEL-5; NCI-H522; PC-3; K562; MDA-MB-231; HCT-15; DU-145; NCI-H23; A498; SK-MEL-2; ACHN; OVCAR-8; HCT-116; M14; KM12; LOX IMVI.
Assay in all cases: NCI tumour cell line growth inhibition, 48 h

In the case of `CCCCc1ccc(Nc2nc(OC)c3ncn(C4CC(O)C(CO)O4)c3n2)cc1` (stereo not given), the GI50 in the experiment with MDA-N was 15.5 µM (inactive); in the experiment on Malme-3M, 20.7 µM (inactive); in the experiment with OVCAR-4, 18 µM (inactive); with HL-60, 2.05 µM (inactive); with SK-MEL-5, 18.7 µM (inactive); in the experiment with NCI-H522, 1.86 µM (inactive). Also, the GI50 in the experiment on PC-3 is 18.1 µM (inactive); with K562, 6.15 µM (inactive); with MDA-MB-231, 17.7 µM (inactive); in the experiment with HCT-15, 13.9 µM; in the experiment with DU-145, 19.6 µM (inactive); with NCI-H23, 18 µM (inactive). Further, the GI50 in the experiment with A498 was 19.7 µM (inactive); in the experiment on SK-MEL-2, 20.2 µM (inactive); in the experiment with ACHN, 16.4 µM (inactive); with OVCAR-8, 16.4 µM (inactive); with HCT-116 it was 15.8 µM (inactive); in the experiment on M14, 28.9 µM (inactive). The GI50 in the experiment on KM12 is 16.5 µM (inactive); in the experiment on LOX IMVI, 12.1 µM (inactive).

In the case of `C=C1C(=O)CC2C(=O)C(C)(O)CC/C=C(\C)C(=O)CC12` (stereo not given), the GI50 in the experiment with MDA-N is 17.3 µM (inactive); with Malme-3M, 11.7 µM (inactive); in the experiment with OVCAR-4, 37.6 µM (inactive); in the experiment on HL-60 it was 1.53 µM (inactive); with SK-MEL-5, 14.7 µM (inactive); in the experiment with NCI-H522, 3.19 µM (inactive). The GI50 in the experiment with PC-3 is 24.7 µM (inactive); with K562, 6.37 µM (inactive); in the experiment with MDA-MB-231 it was 26.7 µM (inactive); with HCT-15 it was 13.6 µM; with DU-145, 18.2 µM (inactive); in the experiment with NCI-H23, 16.9 µM (inactive). Besides, the GI50 is > 86.9 µM (inactive) in the experiment with A498; 28.8 µM (inactive) in the experiment on SK-MEL-2; 10.2 µM (inactive) in the experiment with ACHN; 20.1 µM (inactive) in the experiment with OVCAR-8; 10.3 µM (inactive) with HCT-116; 16.4 µM (inactive) in the experiment on M14. The GI50 in the experiment with KM12 is 32.6 µM (inactive); with LOX IMVI, 16.3 µM (inactive).

Turning to `O=C1C(Cl)=C(N2CCN(c3ncccn3)CC2)C(=O)c2c(O)ccc(O)c21`, the GI50 in the experiment on MDA-N is 1.78 µM (inactive); in the experiment on Malme-3M, 1.94 µM (inactive); in the experiment with OVCAR-4 it was 1.98 µM (inactive); with HL-60, 0.0515 µM (active); with SK-MEL-5 it was 2.17 µM (inactive); in the experiment with NCI-H522, 2.2 µM (inactive). The GI50 was 3.1 µM (inactive) in the experiment on PC-3; 1.45 µM (inactive) in the experiment on K562; 2.15 µM (inactive) in the experiment with MDA-MB-231; 1.59 µM with HCT-15; 4.34 µM (inactive) in the experiment on DU-145; 2.27 µM (inactive) in the experiment on NCI-H23. Moreover, the GI50 in the experiment on A498 is 2.9 µM (inactive); in the experiment with SK-MEL-2 it was 1.03 µM (active); in the experiment on ACHN, 2.43 µM (inactive); in the experiment with OVCAR-8, 2.18 µM (inactive); in the experiment with HCT-116, 1.69 µM (inactive); with M14 it was 1.88 µM (inactive). Further, the GI50 was 4.43 µM (inactive) in the experiment on KM12 and 1.72 µM (inactive) in the experiment on LOX IMVI.

For `CCOc1ccc(/N=C/c2ccnc3ccccc23)cc1`, the GI50 in the experiment on MDA-N was 30.1 µM (inactive); in the experiment with Malme-3M, 75.9 µM (inactive); in the experiment with OVCAR-4, 62.8 µM (inactive); with HL-60 it was 2.05 µM (inactive); in the experiment on SK-MEL-5, 8.15 µM (inactive); with NCI-H522 it was 36.3 µM (inactive). Moreover, the GI50 in the experiment with PC-3 is 31.5 µM (inactive); in the experiment on K562, 3.11 µM (inactive); in the experiment on MDA-MB-231, 20.7 µM (inactive); in the experiment on HCT-15, 11.5 µM; in the experiment with DU-145 it was 60.3 µM (inactive); with NCI-H23 it was 49.3 µM (inactive). For the same compound, the GI50 in the experiment with A498 was > 100 µM (inactive); with SK-MEL-2 it was 61.8 µM (inactive); in the experiment with ACHN it was 58.2 µM (inactive); in the experiment on OVCAR-8, 21.2 µM (inactive); with HCT-116, 0.912 µM (active); with M14 it was 30.3 µM (inactive). The GI50 in the experiment with KM12 is 19.7 µM (inactive); with LOX IMVI, 13.2 µM (inactive).

With `CC(=O)NC(CSC1=C2NC(=O)\C=C/C=C\C=C/C(C)C(O)CC(=O)/C(C)=C\CC(O)/C=C\C(C)C(O)C(C)C=C(C)C(=O)c3c(O)c(C)cc(c3C1=O)C2=O)C(=O)O` (stereo not given), the GI50 in the experiment with MDA-N is 51.4 µM (inactive); in the experiment with Malme-3M, 52.1 µM (inactive); with OVCAR-4, > 100 µM (inactive); in the experiment with HL-60, 23.6 µM (inactive); with SK-MEL-5, 39.3 µM (inactive); with NCI-H522, 17.3 µM (inactive). The GI50 was > 100 µM (inactive) with PC-3; 39.1 µM (inactive) with K562; 24.6 µM (inactive) with MDA-MB-231; more than 100 µM in the experiment on HCT-15; 61.8 µM (inactive) in the experiment with DU-145; > 100 µM (inactive) in the experiment with NCI-H23. Further, the GI50 with A498 is > 100 µM (inactive); in the experiment with SK-MEL-2, 80.7 µM (inactive); in the experiment with ACHN, 66.4 µM (inactive); in the experiment with OVCAR-8, > 100 µM (inactive); with HCT-116, 36.4 µM (inactive); with M14, > 100 µM (inactive). Also, the GI50 is 33.7 µM (inactive) in the experiment on KM12 and 69.2 µM (inactive) with LOX IMVI.

For the compound `O=C(O)CSc1ccn(Cc2ccccc2)c1`, the GI50 in the experiment with MDA-N, in the experiment on Malme-3M, in the experiment on OVCAR-4, with HL-60, in the experiment with SK-MEL-5 and in the experiment with NCI-H522 was > 100 µM (inactive) each time. The GI50 with PC-3 was > 100 µM (inactive); in the experiment on K562, > 100 µM (inactive); in the experiment on MDA-MB-231 it was > 100 µM (inactive); with HCT-15, more than 100 µM; with DU-145 it was > 100 µM (inactive); with NCI-H23, > 100 µM (inactive). The GI50 in the experiment with A498, with SK-MEL-2, with ACHN, in the experiment on OVCAR-8, in the experiment with HCT-116 and in the experiment on M14 was > 100 µM (inactive) in each case. Besides, the GI50 with KM12 and in the experiment with LOX IMVI was > 100 µM (inactive) throughout.

Take `CC1(C)O[C@H]2OC3CCC(=O)CC3(O)[C@H]2O1` (stereo not given in full): the GI50 in the experiment on MDA-N was > 100 µM (inactive); with Malme-3M it was > 51.6 µM (inactive); in the experiment with OVCAR-4, > 100 µM (inactive); with HL-60, > 100 µM (inactive); with SK-MEL-5, > 100 µM (inactive); in the experiment with NCI-H522, > 100 µM (inactive). Besides, the GI50 in the experiment on PC-3 was > 100 µM (inactive); in the experiment on K562 it was > 100 µM (inactive); in the experiment with MDA-MB-231, > 100 µM (inactive); with HCT-15, more than 100 µM; in the experiment on DU-145, > 100 µM (inactive); in the experiment on NCI-H23, > 100 µM (inactive). For the same compound, the GI50 in the experiment on A498, in the experiment on SK-MEL-2, with ACHN, with OVCAR-8, in the experiment with HCT-116 and in the experiment with M14 was > 100 µM (inactive) in each case. Further, the GI50 in the experiment with KM12 and in the experiment on LOX IMVI was > 100 µM (inactive) throughout.

With `O=C1CC(c2cccc([N+](=O)[O-])c2)C2(C(=O)NC(=O)NC2=O)C(c2cccc([N+](=O)[O-])c2)C1` (stereo not given), the GI50 in the experiment on MDA-N was > 100 µM (inactive); in the experiment with Malme-3M it was 0.783 µM (active); in the experiment with OVCAR-4 it was > 100 µM (inactive); in the experiment on HL-60, > 100 µM (inactive); in the experiment with SK-MEL-5, > 100 µM (inactive); in the experiment on NCI-H522, 78.2 µM (inactive). For the same compound, the GI50 in the experiment on PC-3 was 69.7 µM (inactive); with K562, 67.6 µM (inactive); with MDA-MB-231 it was > 100 µM (inactive); with HCT-15 it was 70.5 µM; in the experiment with DU-145 it was 64.4 µM (inactive); in the experiment with NCI-H23, > 100 µM (inactive). Moreover, the GI50 was > 100 µM (inactive) in the experiment on A498; > 100 µM (inactive) in the experiment with SK-MEL-2; > 100 µM (inactive) in the experiment with ACHN; > 100 µM (inactive) with OVCAR-8; 20.1 µM (inactive) with HCT-116; > 100 µM (inactive) with M14. Besides, the GI50 in the experiment with KM12 is 27.5 µM (inactive); in the experiment on LOX IMVI, 36.8 µM (inactive).

As to `C[Si](C)(C)C1=C([Si](C)(C)C)C(Cl)(Cl)C1=O`, the GI50 in the experiment on MDA-N was 1.99 µM (inactive); in the experiment on Malme-3M, 1.75 µM (inactive); with OVCAR-4, 3.28 µM (inactive); with HL-60, 0.217 µM (active); in the experiment on SK-MEL-5, 1.98 µM (inactive); with NCI-H522, 1.27 µM (inactive). Besides, the GI50 in the experiment with PC-3 was 3.76 µM (inactive); with K562 it was 0.879 µM (active); with MDA-MB-231 it was 2.8 µM (inactive); in the experiment on HCT-15, 1.92 µM; in the experiment on DU-145 it was 10.4 µM (inactive); in the experiment with NCI-H23 it was 4.26 µM (inactive). Also, the GI50 is 15.5 µM (inactive) with A498; 9.12 µM (inactive) in the experiment on SK-MEL-2; 1.74 µM (inactive) with ACHN; 2.23 µM (inactive) in the experiment on OVCAR-8; 3.39 µM (inactive) in the experiment with HCT-116; 2.65 µM (inactive) with M14. Further, the results for the GI50 with KM12 and with LOX IMVI were 6.17 µM (inactive) and 1.58 µM (inactive), respectively.

On to `CCOC(=O)/C(C)=C\[C@@]1(C)O[C@@H](C)[C@@](C)(OC(C)=O)[C@@H]1OC(C)=O`, for which the GI50 is 44.5 µM (inactive) in the experiment with MDA-N; 57.3 µM (inactive) with Malme-3M; 33.4 µM (inactive) in the experiment on OVCAR-4; 39.6 µM (inactive) in the experiment on HL-60; 33.8 µM (inactive) in the experiment on SK-MEL-5; 25.2 µM (inactive) with NCI-H522. Also, the GI50 was 36.6 µM (inactive) in the experiment with PC-3; 38.6 µM (inactive) in the experiment with K562; 57.5 µM (inactive) in the experiment with MDA-MB-231; 17.1 µM with HCT-15; 37.1 µM (inactive) with DU-145; 21.5 µM (inactive) with NCI-H23. Also, the GI50 in the experiment with A498 is 48 µM (inactive); with SK-MEL-2, 61.8 µM (inactive); in the experiment on ACHN, 41 µM (inactive); with OVCAR-8, 67.5 µM (inactive); with HCT-116, 40.9 µM (inactive); in the experiment with M14, 61.5 µM (inactive). The values for the GI50 in the experiment with KM12 and in the experiment on LOX IMVI were 45.2 µM (inactive) and 71 µM (inactive), respectively.
